# Counter-ions that a name gives are not always drawn. Like-named read-outs stand apart in the source and are kept apart here. Marks after values point to notes of the source that are not given here.
# Tests used:
# H22 tumor-bearing mice [1] = conditions: 100 mg/kg × 1, i.p.
# Description: To determine the pharmacodynamic characters of 13a-(S)-deoxytylophorinine and its salts, the impact of these compounds to the tumor growth in H22 tumor-bearing mice was surveyed.
# Male Kunming mice were obtained from the Laboratory Animal Center, Academy of Military Medical Science. Body weight 18˜22 g. 6 animals per group, totally 10 groups, 60 animals.
# (+)-13a-(S)-deoxytylophorinine, (+)-13a-(S)-deoxytylophorinine Tartrate, (+)-13a-(S)-deoxytylophorinine Maleate, (+)-13a-(S)-deoxytylophorinine Citrate, Cytoxane (CTX) as positive control.
# (+)-13a-(S)-deoxytylophorinine was administered at high dose (5 mg/kg) and low dose (2.5 mg/kg). Three (+)-13a-(S)-deoxytylophorinine salts were administered at high dose and low dose as equal moles with their prototype (Tartrate: 7.05 mg/kg, 3.53 mg/kg; Malate: 6.60 mg/kg, 3.30 mg/kg; Citrate: 7.90 mg/kg, 3.95 mg/kg).
# (§1) Animals were reared in SPF grade circumstance to be observed for 24 h. The tumor cells liquid which resuscitated in abdominal cavity of KM mice was diluted with aseptic normal saline at 1:3 ratio. The resulting liquid was inoculated subcutaneously at forelimb with 0.2 mL every animal. After the injection over, the animals were divided to 12 groups with 6 animals per group.
# Four experimental samples were intragastric administered once daily 24 h after inoculation. The positive control CTX was intraperitoneal injected once daily. The animal body weight was recorded every day.
# H22 tumor-bearing mice [2] = test system: H22 tumor-bearing mice
# Procedure: To observe the impact of 13a-(S)-deoxytylophorinine Sulfate: on the tumor growth of H22 tumor-bearing mice.
# Male Kunming mice were obtained from the Laboratory Animal Center, Academy of Military Medical Science. Body weight 18˜22 g.
# (+)-13a-(S)-deoxytylophorinine Sulfate, Cytoxane (CTX) as positive control.
# All the samples were administered orally. o.d. 0.2 ml/10 g.
# (+)-13a-(S)-deoxytylophorinine Sulfate was administered at five dose groups: 3 mg/kg, 4 mg/kg, 5 mg/kg, 6 mg/kg and 8 mg/kg.
# as §1, with “KM species” for “KM”, “13 groups. Experimental samples were administered 24 h after inoculation.” for “12 groups with 6 animals per group.”
# Solubility in water = format: physicochemical; conditions: water
smiles,measurement,setting,value
"O=P1(N(CCCl)CCCl)NCCCO1 (stereo not shown) [CTX, Cytoxan, reference compound]",Animal No. (Initial/Final),H22 tumor-bearing mice [1],6/6
same,Body Weight(g) Final,H22 tumor-bearing mice [1],23.77 ± 1.38 g
same,Body Weight(g) Initial,H22 tumor-bearing mice [1],21.33 ± 1.63 g⁻¹
same,Inhibition (%),H22 tumor-bearing mice [1],48.47* %
same,"Tumor Weight (g, mean ± SD)",H22 tumor-bearing mice [1],0.59 ± 0.26 g
same,Animal No. (Initial/Final),"H22 tumor-bearing mice [2]; 100 mg/kg × 1, i.p.",6/6
same,Body Weight(g) Final,"H22 tumor-bearing mice [2]; 100 mg/kg × 1, i.p.",25.00 ± 2.37 g
same,Body Weight(g) Initial,"H22 tumor-bearing mice [2]; 100 mg/kg × 1, i.p.",20.67 ± 2.07 g⁻¹
same,Inhibition (%),"H22 tumor-bearing mice [2]; 100 mg/kg × 1, i.p.",94.76** %
same,"Tumor Weight (g, mean ± SD)","H22 tumor-bearing mice [2]; 100 mg/kg × 1, i.p.",0.07 ± 0.04 g
"COc1ccc2c3c(c4cc(OC)c(OC)cc4c2c1)CN1CCC[C@H]1C3 [Sulfate, (+)-13a-(S)-deoxytylophorinine Sulfate]",solubility,Solubility in water,200 mg/mL
same,Animal No. (Initial/Final),"H22 tumor-bearing mice [2]; 3 mg/kg × 7, oral (o.p.)",6/6
same,Body Weight(g) Final,"H22 tumor-bearing mice [2]; 3 mg/kg × 7, oral (o.p.)",26.83 ± 2.56 g
same,Body Weight(g) Initial,"H22 tumor-bearing mice [2]; 3 mg/kg × 7, oral (o.p.)",20.67 ± 0.52 g⁻¹
same,Inhibition (%),"H22 tumor-bearing mice [2]; 3 mg/kg × 7, oral (o.p.)",22.49* %
same,"Tumor Weight (g, mean ± SD)","H22 tumor-bearing mice [2]; 3 mg/kg × 7, oral (o.p.)",0.98 ± 0.21 g
same,Animal No. (Initial/Final),"H22 tumor-bearing mice [2]; 4 mg/kg × 7, oral (o.p.)",6/6
same,Body Weight(g) Final,"H22 tumor-bearing mice [2]; 4 mg/kg × 7, oral (o.p.)",22.83 ± 2.40 g
same,Body Weight(g) Initial,"H22 tumor-bearing mice [2]; 4 mg/kg × 7, oral (o.p.)",20.00 ± 1.26 g⁻¹
same,Inhibition (%),"H22 tumor-bearing mice [2]; 4 mg/kg × 7, oral (o.p.)",52.51* %
same,"Tumor Weight (g, mean ± SD)","H22 tumor-bearing mice [2]; 4 mg/kg × 7, oral (o.p.)",0.60 ± 0.32 g
same,Animal No. (Initial/Final),"H22 tumor-bearing mice [2]; 5 mg/kg × 7, oral (o.p.)",6/6
same,Body Weight(g) Final,"H22 tumor-bearing mice [2]; 5 mg/kg × 7, oral (o.p.)",22.17 ± 5.31 g
same,Body Weight(g) Initial,"H22 tumor-bearing mice [2]; 5 mg/kg × 7, oral (o.p.)",19.83 ± 1.72 g⁻¹
same,Inhibition (%),"H22 tumor-bearing mice [2]; 5 mg/kg × 7, oral (o.p.)",41.75* %
same,"Tumor Weight (g, mean ± SD)","H22 tumor-bearing mice [2]; 5 mg/kg × 7, oral (o.p.)",0.73 ± 0.39 g
same,Deaths of mice (table note),H22 tumor-bearing mice [2]; 6 mg/kg orally,"After (+)-13a-(S)-deoxytylophorinine Sulfate (6 mg/kg) was administered orally, one of mice died on sixth day, two of mice died on seventh day. Stop administion."
same,Animal No. (Initial/Final),"H22 tumor-bearing mice [2]; 6 mg/kg × 6, oral (o.p.)",6/3
same,Body Weight(g) Final,"H22 tumor-bearing mice [2]; 6 mg/kg × 6, oral (o.p.)",15.33 ± 3.21 g
same,Body Weight(g) Initial,"H22 tumor-bearing mice [2]; 6 mg/kg × 6, oral (o.p.)",19.83 ± 1.72 g⁻¹
same,Inhibition (%),"H22 tumor-bearing mice [2]; 6 mg/kg × 6, oral (o.p.)",68.52** %
same,"Tumor Weight (g, mean ± SD)","H22 tumor-bearing mice [2]; 6 mg/kg × 6, oral (o.p.)",0.40 ± 0.24 g
same,Deaths of mice (table note),H22 tumor-bearing mice [2]; 8 mg/kg orally,"After (+)-13a-(S)-deoxytylophorinine Sulfate (8 mg/kg) was administered orally, one of mice died on sixth day, two of mice died on seventh day. Stop administion."
same,Animal No. (Initial/Final),"H22 tumor-bearing mice [2]; 8 mg/kg × 6, oral (o.p.)",6/0
same,Body Weight(g) Initial,"H22 tumor-bearing mice [2]; 8 mg/kg × 6, oral (o.p.)",20.67 ± 1.03 g⁻¹
same,Inhibition (%),"H22 tumor-bearing mice [2]; 8 mg/kg × 6, oral (o.p.)",88.49** %
same,"Tumor Weight (g, mean ± SD)","H22 tumor-bearing mice [2]; 8 mg/kg × 6, oral (o.p.)",0.15 ± 0.04 g
